Consider 9 compounds from US20250144067A1, “PERSONALIZED STARVATION THERAPY FOR CANCER” (Faeth Therapeutics, Inc., priority 2021, published 2025).

Structures are written as SMILES. Structures can show the parent of a compound that is named as a salt. Where two headings read alike, the source gives them in different places. Peptide text beside a SMILES is read from it.

Assay [1] relates to NCI-H292 lung cancer cells. Nature of the assay: FDA drug screening, complete media vs cholesterol-free media without statin (TABLE 1). The class given is cell-based, human.
For assay [2], the system named is NCI-H292 lung cancer cells. The assay can be described thus: FDA drug screening, complete media vs cholesterol-free media with simvastatin (TABLE 2). The class given is cell-based, human.
Where [3] appears, read: Complete minus Cholesterol-free, >0 enhanced anti-cancer activity, about 0 neutral, <0 antagonist.
[4] abbreviates: NCI-H292 cells, cholesterol-free media without statin, FDA drug library screen.
The mark [5] stands for this setting: NCI-H292 cells, complete media, FDA drug library screen.
[6] abbreviates: NCI-H292 cells, drug in cholesterol-free media with simvastatin 0.04 μM.
[7] abbreviates: NCI-H292 cells, drug in complete media.
Setting [8] is: NCI-H292 cells, cholesterol-free media without statin.
[9] abbreviates: NCI-H292 cells, cholesterol-free media with simvastatin 0.04 μM, FDA drug library screen (TABLE 2).
The mark [10] stands for this setting: NCI-H292 cells, complete media, FDA drug library screen (TABLE 2).
Where [11] appears, read: complete media minus cholesterol-free media + simvastatin (0.04 μM), >0 enhanced anti-cancer activity, about 0 neutral, <0 antagonist.
[12] abbreviates: Complete minus Cholesterol-free, […].
Setting [13] is: NCI-H292 cells, FDA drug library screen, complete media.
[14] abbreviates: complete media vs cholesterol-free media + simvastatin (0.04 μM), […].
Where [15] appears, read: Complete minus Cholesterol-free, greater than 0 enhanced anti-cancer activity, about 0 neutral, below 0 antagonists.
[16] abbreviates: NCI-H292 cells in cholesterol-free media without statin.
Where [17] appears, read: NCI-H292 cells in complete media.
[18] abbreviates: complete media minus cholesterol-free media + simvastatin, >0 enhanced anti-cancer activity, about 0 neutral, <0 antagonist.

For `CCCCCCc1ccc(O)cc1O` [Hexylresorcinol], the Difference in assay [1] (setting [3]) was 0.00; in assay [2] (complete media vs cholesterol-free media + simvastatin (0.04 μM), >0 enhanced anti-cancer activity, about 0 neutral, <0 antagonist), −0.17. The same compound showed a Cholesterol-free in assay [1] (setting [4]) of 1.034. This compound yielded a Complete in assay [1] (setting [5]) of 1.036. For the same compound, in assay [2] (setting [6]), the “Cholesterol-free media + simvastatin (0.04 μM)” value is recorded as 1.514. In addition, the “Complete Media” value in assay [2] (setting [7]) was found to be 1.344.
In assay [1] (setting [8]), `CN1CCOC(c2ccccc2)c2ccccc2C1` (stereo not drawn) [Nefopam (hydrochloride)] showed a Cholesterol-free of 1.379. Moreover, the Complete in assay [1] (NCI-H292 cells, complete media) came to 0.9673. Moreover, the Difference in assay [1] (complete vs cholesterol-free media, greater than 0 enhanced anti-cancer activity, about 0 neutral, below 0 antagonists) is on record as −0.41; in assay [2] (setting [11]), −0.04. In assay [2] (setting [9]), the “Cholesterol-free media + simvastatin (0.04 μM)” value amounted to 1.077. For the same compound, the “Complete Media” value in assay [2] (setting [10]) is listed as 1.041.
Regarding `CCCCCCCCCCCCCCCC[n+]1ccccc1.[Cl-]` [Cetylpyridinium (chloride)], the Difference is on record as −0.03 in assay [1] (setting [12]) and 0.02 in assay [2] (complete media minus cholesterol-free media + simvastatin, […]). For the same compound, the Cholesterol-free in assay [1] (setting [4]) amounted to 0.09243. In assay [1] (setting [5]), the Complete is recorded as 0.05797. For the same compound, in assay [2] (NCI-H292 cells, cholesterol-free media with simvastatin 0.04 μM, […]), the “Cholesterol-free media + simvastatin (0.04 μM)” value is recorded as 0.218. For the same compound, the “Complete Media” value in assay [2] (NCI-H292 cells, complete media, […]) was determined as 0.2381.
Consider `CCNC(=O)[C@@H]1CCCN1C(=O)[C@H](CCCNC(=N)N)NC(=O)[C@H](CC(C)C)NC(=O)CNC(=O)[C@H](Cc1ccc(O)cc1)NC(=O)[C@H](CO)NC(=O)[C@H](Cc1c[nH]c2ccccc12)NC(=O)[C@H](Cc1c[nH]cn1)NC(=O)[C@@H]1CCC(=O)N1` [Fertirelin] (HELM PEPTIDE1{[Glp].H.W.S.Y.G.L.R.P.[CCN[*:1]]}$$$$V2.0), for which the Difference is given as −0.12 in assay [1] (setting [12]) and −0.23 in assay [2] (setting [14]). This compound yielded a Cholesterol-free in assay [1] (NCI-H292 cells, FDA drug library screen, cholesterol-free media without statin) of 0.9867. Moreover, the Complete in assay [1] (setting [13]) is reported as 0.8642. For the same compound, the “Cholesterol-free media + simvastatin (0.04 μM)” value in assay [2] (setting [6]) is 1.367. In addition, in assay [2] (setting [7]), the “Complete Media” value is 1.138.
On to `FC(F)(F)C(F)(F)C(F)(F)C(F)(F)C(F)(F)C(F)(F)C(F)(F)C(F)(F)Br` [Perflubron], for which the Difference is −0.50 in assay [1] (setting [15]) and 0.35 in assay [2] (setting [18]). The same compound displayed a Cholesterol-free in assay [1] (setting [16]) of 1.905. The same compound showed a Complete in assay [1] (setting [17]) of 1.408. Moreover, in assay [2] (NCI-H292 cells, FDA drug library screen, cholesterol-free media with simvastatin 0.04 μM), the “Cholesterol-free media + simvastatin (0.04 μM)” value is reported as 0.901. For the same compound, the “Complete Media” value in assay [2] (setting [13]) is given as 1.248.
In assay [1], `Cc1nnc(C(=O)NC(C)(C)c2nc(C(=O)NCc3ccc(F)cc3)c(O)c(=O)n2C)o1` [Raltegravir (potassium salt)] came in with a Cholesterol-free of 1.332, a Complete of 0.9188 and a Difference of −0.41. In addition, in assay [2], the “Cholesterol-free media + simvastatin (0.04 μM)” value came out at 0.8687, the “Complete Media” value amounted to 0.9051 and the Difference is listed as 0.04.
Take `CC(C)(CO)c1cc2cc(NC(=O)C3(c4ccc5c(c4)OC(F)(F)O5)CC3)c(F)cc2n1C[C@@H](O)CO` [Tezacaftor]: the Difference in assay [1] (setting [15]) was −0.63; in assay [2] (setting [11]), −0.04. In addition, in assay [1] (setting [16]), the Cholesterol-free was 1.488. Also, the Complete in assay [1] (setting [17]) is given as 0.8597. For the same compound, the “Cholesterol-free media + simvastatin (0.04 μM)” value in assay [2] (setting [9]) came out at 1.227. Besides, in assay [2] (setting [10]), the “Complete Media” value is 1.187.
Take `CCCOc1ccc(S(=O)(=O)NCCC2CCCN2C)cc1-c1nc2c(CCC)nn(C)c2c(=O)[nH]1` (stereo not drawn) [Udenafil]: the Difference is recorded as −0.28 in assay [1] (setting [3]) and 0.08 in assay [2] (setting [18]). Also, the Cholesterol-free in assay [1] (setting [8]) is recorded as 1.473. The Complete in assay [1] (NCI-H292 cells, complete media) was 1.195. Also, in assay [2] (NCI-H292 cells, cholesterol-free media with simvastatin 0.04 μM, cell growth value in FDA drug screen), the “Cholesterol-free media + simvastatin (0.04 μM)” value was determined as 1.921. Moreover, in assay [2] (NCI-H292 cells, complete media, cell growth value in FDA drug screen), the “Complete Media” value is reported as 2.002.
In the case of `CC[C@H](C)[C@H]1O[C@]2(CC[C@@H]1C)C[C@@H]1C[C@@H](C/C=C(\C)[C@@H](O[C@H]3C[C@H](OC)[C@@H](O[C@H]4C[C@H](OC)[C@@H](O)[C@H](C)O4)[C@H](C)O3)[C@@H](C)/C=C/C=C3\CO[C@@H]4[C@H](O)C(C)=C[C@@H](C(=O)O1)[C@]34O)O2` [Ivermectin], the Difference in assay [1] (setting [12]) is 0.00; in assay [2] (setting [14]) it was −0.62. Moreover, in assay [1] (setting [4]), the Cholesterol-free was 0.1454. In addition, the Complete in assay [1] (setting [5]) was 0.1503. For the same compound, the “Cholesterol-free media + simvastatin (0.04 μM)” value in assay [2] (NCI-H292 cells, FDA library drug in cholesterol-free media with simvastatin 0.04 μM) was determined as 1.074. Besides, in assay [2] (NCI-H292 cells, FDA library drug in complete media), the “Complete Media” value is on record as 0.4557.
